Experimental data: US9963461B2, “Phillygenin ibuprofen ester, preparation method therefor, and application thereof” (priority 2014, dated 2018)
Marks after values point to notes of the source that are not given here.

Legend:
[1] = test system: influenza virus; experiment: Impact of the drugs on the virus-induced cytopathy (MTT); type: cell-based; conditions: influenza virus 100 TCID50, Vero cells, about the maximal non-cytotoxic concentration, 72 hours
[2] = test system: respiratory syncytial virus (RSV); experiment: as above; type: cell-based; conditions: RSV 100 TCID50, Vero cells, about the maximal non-cytotoxic concentration, 72 hours
[3] = test system: Herpes Simplex Virus type I (HSV-1); experiment: as above; type: cell-based; conditions: HSV-I 100 TCID50, Vero cells, about the maximal non-cytotoxic concentration, 72 hours
[4] = test system: Adenovirus (AdV); experiment: as above; type: cell-based; conditions: ADV 100 TCID50, Vero cells, about the maximal non-cytotoxic concentration, 72 hours
[5] = test system: Enterovirus EV71; experiment: as above; type: cell-based; conditions: EV71 100 TCID50, Vero cells, about the maximal non-cytotoxic concentration, 72 hours
[6] = test system: sweat secretion of rat paw part; experiment: Sweat secretion of rat paw part (coloring method); type: in vivo, Wistar rats; conditions: for Animal number of sweat points of level +: + = sweat area below about 10%; for Animal number of sweat points of level ++: ++ = sweat area about 11-40%; for Animal number of sweat points of level +++: +++ = sweat area about 41-70%; for Animal number of sweat points of level ++++: ++++ = sweat area over 71%; for Animal number of sweat points of level −: − = no sweat point
Source text: This test was designed to observe the change of sweat secretion based on the mechanism that sweat gland is distributed on the rat paw pads, and iodine and starch can have purple reaction when encountered with sweat. In the test, 350 Wistar rats were selected, with equal male and female number, weighing 120-150 g. […] The rats were placed in a self-made rat fixation bag, with the double hind limbs exposed. The dirts on the right paw was gently scrubbed clean with the cotton swab dipped with anhydrous ethanol. Besides that subcutaneous injection was used for the pilocarpine solution, intragastric administration was used for all the other groups. […] When the test was complete, statistical process was carried out according to the rank-sum test with two-sample comparison, in order to compare the difference between the groups.

[7] = test system: beer yeast induced rat fever; experiment: Beer yeast induced rat fever; type: in vivo, Wistar rats
Method: Male Wistar rats were selected, weighing 180-200 g. Before the test, WSC-411P portable digital thermometer was used to measure the normal rectal temperature twice (with certain interval for each time), and the average value of the two measurements was taken as the normal body temperature of the rat. Then 70 rats with the body temperature between 36.5° C. and 38° C. were chosen to be randomly divided into 7 groups by weight: the model (0.5% carboxymethylcellulose) group, the 2.5, 5, and 10 mg/kg phillygenin ibuprofen ester groups, the positive drug paracetamol (100 mg/kg) group, the ibuprofen group (i.e. prodrug control group, 300 mg/kg), the phillygenin group (100 mg/kg), with 10 rats for each group. Each group of rats were subjected to back subcutaneous injection with 10% fresh beer yeast suspension of 10 ml/kg to induce heat. After administration of 10% fresh beer yeast suspension for 6.0 h, phillygenin ibuprofen ester and paracetamol were both subjected to intragastric administration, and the model group was intragastrically administrated with equal volume of 0.5% carboxymethylcellulose. Rectal temperature was measured after 1 h, 2 h, 3 h and 4 h of the administration respectively. Changes in the body temperature were observed and difference between the groups was compared by inter-group t test processing through antipyretic percentage.

[8] = test system: mice pain induced by acetic acid; experiment: Analgesic test, mice writhing induced by acetic acid; type: in vivo, Kunming mice; conditions: for Writhing times: within 15 min after 0.7% acetic acid
Method: 72 Kunming mice were randomly divided into 6 groups, with 12 mice for each group. (1) the blank normal control group (i.e. saline group, […]); (2) positive drug aspirin group (200 mg/kg); (3) ibuprofen group (300 mg/kg); (4) high dose group of phillygenin ibuprofen ester (300 mg/kg); (5) medium dose group of phillygenin ibuprofen ester (150 mg/kg); (6) low dose group of phillygenin ibuprofen ester (75 mg/kg). […] The number of mice writhings within 15 min after administration was recorded. The number of writhings was taken as the evaluation index to evaluate the analgesic effect.

[9] = after coating B liquid for 1 minute, 2.5 mg/kg intragastric
[10] = after coating B liquid for 1 minute, 5.0 mg/kg intragastric
[11] = after coating B liquid for 1 minute, 10.0 mg/kg intragastric
[12] = after coating B liquid for 5 minutes, 2.5 mg/kg intragastric
[13] = after coating B liquid for 5 minutes, 5.0 mg/kg intragastric
[14] = after coating B liquid for 5 minutes, 10.0 mg/kg intragastric
[15] = after coating B liquid for 10 minutes, 2.5 mg/kg intragastric
[16] = after coating B liquid for 10 minutes, 5.0 mg/kg intragastric
[17] = after coating B liquid for 10 minutes, 10.0 mg/kg intragastric
[18] = after coating B liquid for 15 minutes (Table 2-4), 2.5 mg/kg intragastric
[19] = after coating B liquid for 15 minutes (Table 2-4), 5.0 mg/kg intragastric
[20] = after coating B liquid for 15 minutes (Table 2-4), 10.0 mg/kg intragastric
[21] = after coating B liquid for 15 minutes (Table 2-5), 2.5 mg/kg intragastric
[22] = after coating B liquid for 15 minutes (Table 2-5), 5.0 mg/kg intragastric
[23] = after coating B liquid for 15 minutes (Table 2-5), 10.0 mg/kg intragastric
[24] = 2.5 mg/kg, 1 h after administration
[25] = 2.5 mg/kg, 2 h after administration
[26] = 2.5 mg/kg, 3 h after administration
[27] = 2.5 mg/kg, 4 h after administration
[28] = 5.0 mg/kg, 1 h after administration
[29] = 5.0 mg/kg, 2 h after administration
[30] = 5.0 mg/kg, 3 h after administration
[31] = 5.0 mg/kg, 4 h after administration
[32] = 10.0 mg/kg, 1 h after administration
[33] = 10.0 mg/kg, 3 h after administration
[34] = 10.0 mg/kg, 4 h after administration

COc1ccc([C@H]2OCC3C2CO[C@H]3c2ccc(OC)c(OC(=O)C(C)c3ccc(CC(C)C)cc3)c2)cc1OC (stereo partly shown) [Phillygenin ibuprofen ester, phillygenin ibuprofen ester]
antiviral effective rate (ER %) [1]: 99.95**^# %
antiviral effective rate (ER %) [2]: 87.74**^# %
antiviral effective rate (ER %) [3]: 99.80**^# %
antiviral effective rate (ER %) [4]: 75.90**^## %
antiviral effective rate (ER %) [5]: 99.81**^## %
effect on the sweat secretion of rat paw part vs control group ([6]; 10 mg/kg, after coating B liquid for 5, 10, 15 and 20 min, P<0.05): obvious promoting effect
Animal number of sweat points of level + [6, 9]: 2
Animal number of sweat points of level ++ [6, 9]: 3
Animal number of sweat points of level +++ [6, 9]: 3
Animal number of sweat points of level ++++ [6, 9]: 2
Animal number of sweat points of level − [6, 9]: 0
Animal number of sweat points of level + [6, 10]: 1
Animal number of sweat points of level ++ [6, 10]: 2
Animal number of sweat points of level +++ [6, 10]: 3
Animal number of sweat points of level ++++ [6, 10]: 4
Animal number of sweat points of level − [6, 10]: 0
Animal number of sweat points of level + [6, 11]: 1
Animal number of sweat points of level ++ [6, 11]: 3
Animal number of sweat points of level +++ [6, 11]: 1
Animal number of sweat points of level ++++ [6, 11]: 5
Animal number of sweat points of level − [6, 11]: 0
Animal number of sweat points of level + [6, 12]: 1
Animal number of sweat points of level ++ [6, 12]: 3
Animal number of sweat points of level +++ [6, 12]: 3
Animal number of sweat points of level ++++ [6, 12]: 3
Animal number of sweat points of level − [6, 12]: 0
Animal number of sweat points of level + [6, 13]: 1
Animal number of sweat points of level ++ [6, 13]: 4
Animal number of sweat points of level +++ [6, 13]: 1
Animal number of sweat points of level ++++ [6, 13]: 5
Animal number of sweat points of level − [6, 13]: 0
Animal number of sweat points of level + [6, 14]: 0
Animal number of sweat points of level ++ [6, 14]: 3
Animal number of sweat points of level +++ [6, 14]: 2
Animal number of sweat points of level ++++ [6, 14]: 5
Animal number of sweat points of level − [6, 14]: 0
Animal number of sweat points of level + [6, 15]: 1
Animal number of sweat points of level ++ [6, 15]: 2
Animal number of sweat points of level +++ [6, 15]: 3
Animal number of sweat points of level ++++ [6, 15]: 4
Animal number of sweat points of level − [6, 15]: 0
Animal number of sweat points of level + [6, 16]: 0
Animal number of sweat points of level ++ [6, 16]: 3
Animal number of sweat points of level +++ [6, 16]: 2
Animal number of sweat points of level ++++ [6, 16]: 5
Animal number of sweat points of level − [6, 16]: 0
Animal number of sweat points of level + [6, 17]: 0
Animal number of sweat points of level ++ [6, 17]: 2
Animal number of sweat points of level +++ [6, 17]: 3
Animal number of sweat points of level ++++ [6, 17]: 5
Animal number of sweat points of level − [6, 17]: 0
Animal number of sweat points of level + [6, 18]: 1
Animal number of sweat points of level ++ [6, 18]: 3
Animal number of sweat points of level +++ [6, 18]: 1
Animal number of sweat points of level ++++ [6, 18]: 5
Animal number of sweat points of level − [6, 18]: 0
Animal number of sweat points of level + [6, 19]: 0
Animal number of sweat points of level ++ [6, 19]: 2
Animal number of sweat points of level +++ [6, 19]: 3
Animal number of sweat points of level ++++ [6, 19]: 5
Animal number of sweat points of level − [6, 19]: 0
Animal number of sweat points of level + [6, 20]: 0
Animal number of sweat points of level ++ [6, 20]: 1
Animal number of sweat points of level +++ [6, 20]: 4
Animal number of sweat points of level ++++ [6, 20]: 5
Animal number of sweat points of level − [6, 20]: 0
Animal number of sweat points of level + [6, 21]: 0
Animal number of sweat points of level ++ [6, 21]: 2
Animal number of sweat points of level +++ [6, 21]: 3
Animal number of sweat points of level ++++ [6, 21]: 5
Animal number of sweat points of level − [6, 21]: 0
Animal number of sweat points of level + [6, 22]: 0
Animal number of sweat points of level ++ [6, 22]: 1
Animal number of sweat points of level +++ [6, 22]: 4
Animal number of sweat points of level ++++ [6, 22]: 5
Animal number of sweat points of level − [6, 22]: 0
Animal number of sweat points of level + [6, 23]: 0
Animal number of sweat points of level ++ [6, 23]: 0
Animal number of sweat points of level +++ [6, 23]: 5
Animal number of sweat points of level ++++ [6, 23]: 5
Animal number of sweat points of level − [6, 23]: 0
Body temperature (° C.) [7, 24]: 38.93 ± 0.43 °C
antipyretic percentage (%) [7, 24]: −1.01 ± 1.05 %
Body temperature (° C.) [7, 25]: 38.75 ± 0.43 °C
antipyretic percentage (%) [7, 25]: −1.48 ± 1.11 %
Body temperature (° C.) [7, 26]: 38.56 ± 0.52 °C
antipyretic percentage (%) [7, 26]: −1.97 ± 1.67 %
Body temperature (° C.) [7, 27]: 38.25 ± 0.58 °C
antipyretic percentage (%) [7, 27]: −2.47 ± 1.80 %
Body temperature (° C.) [7, 28]: 38.48 ± 0.59 °C
antipyretic percentage (%) [7, 28]: −1.91 ± 0.40 %
Body temperature (° C.) [7, 29]: 38.33 ± 0.50 °C
antipyretic percentage (%) [7, 29]: −2.29 ± 0.54**^Δ▴▴ %
Body temperature (° C.) [7, 30]: 37.85 ± 0.33 °C
antipyretic percentage (%) [7, 30]: −3.52 ± 0.38***^Δ▴ %
Body temperature (° C.) [7, 31]: 37.67 ± 0.45 °C
antipyretic percentage (%) [7, 31]: −3.98 ± 0.52***^Δ▴▴ %
Body temperature (° C.) [7, 32]: 38.61 ± 0.51 °C
antipyretic percentage (%) [7, 32]: −2.10 ± 0.53**^Δ▴▴ %
Body temperature (° C.) ([7]; 10.0 mg/kg, 2 h after administration): 39.13 ± 0.45 °C
Body temperature (° C.) [7, 33]: 37.8 ± 0.40 °C
antipyretic percentage (%) [7, 33]: −4.01 ± 1.12***^Δ▴▴ %
Body temperature (° C.) [7, 34]: 37.74 ± 0.31 °C
antipyretic percentage (%) [7, 34]: −4.30 ± 1.26***^Δ▴▴ %
effect on the rat fever induced by beer yeast suspension vs model group ([7]; medium and high dose groups (5, 10 mg/kg), 1 h, 2 h, 3 h and 4 h after administration): significant cooling effects
Writhing times ([8]; 75 mg/kg intragastric): 15.8*
Writhing times ([8]; 150 mg/kg intragastric): 6.5*
Writhing times ([8]; 300 mg/kg intragastric): 3.9*^#
effect on mice pain induced by acetic acid vs blank control group ([8]; low, medium and high dose groups (75, 150, 300 mg/kg), P<0.01): had analgesic effect
